# Activity calls are given as the source filed them.
# Legend:
# [1] = Late stage assay provider results from the probe development effort to identify inhibitors of the Plasmodium falciparum M17 Leucine Aminopeptidase (M17LAP): radiolabel-based cell-based dose response assay to identify compounds that inhibit P. falciparum growth in RBCs Set 2.; assay type: functional
# [2] = biological target: Metabotropic glutamate receptor 3 (Rattus norvegicus, UniProt P31422); test: mGlu3 negative allosteric modulator potency, dose response, HEK/GIRK cells, thallium flux, rat (AID 651839); assay type: functional
# [3] = IRAP inhibitors, dose response, selectivity assay for ERAP1 modulator project, biochemical, Leu-AMC fluorescence, cherry-picked samples, set 2 (AID 743340)
# [4] = cytotoxicity in COV434 cells, dose response, cytotoxicity control for PAX8 inhibitor project, cell-based, plate reader, dry powder, SA7 (AID 743145); assay type: functional
# [5] = cytotoxicity in OVCAR4 cells, dose response, cytotoxicity control for PAX8 inhibitor project, cell-based, plate reader, dry powder, SA11 (AID 743150); assay type: functional; conditions: OVCAR-4
# [6] = cytotoxicity dependent on PAX8, dose response, cell-based, plate reader, dry powder (AID 743049); assay type: functional
# [7] = cytotoxicity in OV-90 ovarian cancer cells, dose response, PAX8 inhibitor project, cell-based, plate reader, dry powder, SA8 (AID 743149); assay type: functional
# [8] = IOSE-T80 ovarian epithelial cell cytotoxicity, dose response, cytotoxicity control for PAX8 inhibitor project, plate reader, dry powder samples (AID 743045); assay type: functional, cell-based
# [9] = PAX5 activity inhibitors, dose response, selectivity assay for PAX8 inhibitor project, cell-based, plate reader, dry powder samples (AID 743047); assay type: functional;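 also: HEK293 cells carrying a Pax5 driven CD19 promoter luciferase reporter; potency of inhibitors that lower reporter luminescence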
# [10] = NIH:OVCAR-3 ovarian cancer cell cytotoxicity, dose response, PAX8 inhibitor project, plate reader, dry powder samples (AID 743044); assay type: functional, cell-based
# [11] = IGROV1 ovarian cancer cell cytotoxicity, dose response, PAX8 inhibitor project, plate reader, dry powder samples (AID 743043); assay type: functional, cell-based; conditions: IGROV-1
# [12] = cytotoxicity in COV362 ovarian cancer cells, dose response, cytotoxicity control for PAX8 inhibitor project, cell-based, plate reader, dry powder, SA12 (AID 743144); assay type: functional
# [13] = PAX2 cell-based inhibition, dose response, selectivity assay for PAX8 inhibitor project, plate reader, dry powder samples (AID 743048); assay type: functional;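 also: HEK293 cells carrying a WT1 promoter luciferase reporter driven by expressed Pax2; potency is for inhibition of Pax2 driven reporter signal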
# [14] = MITF Orthogonal Assay: SK-MEL-5 CTG Assay Measured in Cell-Based System Using Plate Reader - 2084-02_Inhibitor_Dose_DryPowder_Activity_Set7.; assay type: functional
# [15] = MITF: Counter assay: A375 proliferation Measured in Cell-Based System Using Plate Reader - 2084-03_Inhibitor_Dose_DryPowder_Activity_Set8.; assay type: functional; conditions: A-375
# [16] = TRPM1 promoter luciferase reporter signal decrease, dose response, MITF inhibitor project, cell-based, SK-MEL-5, dry powder, set 8 (AID 624430); assay type: functional
# [17] = cytotoxicity in HepG2 cells, dose response, cytotoxicity control, cell-based, cherry-picked samples (AID 1053183); assay type: functional
# [18] = cytotoxicity in A549 cells, dose response, cytotoxicity control, cell-based, cherry-picked samples (AID 1053184); assay type: functional
# [19] = HepG2 cell cytotoxicity, dose response, cytotoxicity control, cherry-picked samples (AID 1159577); assay type: functional, cell-based
# [20] = cytotoxicity in HEK293 cells, dose response, cytotoxicity control, cell-based, cherry-picked samples (AID 1053185); assay type: functional
# [21] = P. falciparum Dd2 growth inhibitors, dose response, SYBR Green, cherry-picked samples (AID 1159567); assay type: functional, cell-based
# [22] = biological target: Kappa-type opioid receptor (Homo sapiens, UniProt P41145); test: OPRK1 antagonists, late-stage follow-up, cell-based, fluorescence, dose response (AID 652032); assay type: functional
# [23] = biological target: Delta-type opioid receptor (Homo sapiens, UniProt P41143); test: Late-stage results from the probe development effort to identify antagonists of OPRK1: fluorescence-based cell-based dose response OPRD1 counterscreen.; assay type: functional
# Mu-type opioid receptor = Mu-type opioid receptor (Homo sapiens, UniProt P35372); test: Late-stage results from the probe development effort to identify antagonists of OPRK1: luminescence-based cell-based dose response OPRM1 counterscreen.; assay type: functional
# [24] = HepG2 cell cytotoxicity, dose response, cytotoxicity control, cherry-picks, set 5 (AID 1053118); assay type: functional, cell-based
# [25] = HEK293 cell cytotoxicity, dose response, cytotoxicity control, cherry-picks, set 5 (AID 1053117); assay type: functional, cell-based
# [26] = inhibitors of fibronectin matrix deposition, dose response, AH1F cells, Alexa488-FN fluorescence, cherry-picks (AID 1035475); assay type: functional, cell-based
# [27] = biological target: Intestinal-type alkaline phosphatase (Homo sapiens, UniProt P09923); test: human intestinal alkaline phosphatase activators, dose response, biochemical, luminescence, uHTS hits (AID 463120); assay type: functional
# [28] = HepG2 cell cytotoxicity, dose response, cytotoxicity control, ATP luminescence, cherry-pick, activator set 2 (AID 1053143); assay type: functional, cell-based
# Sequence of Delta-type opioid receptor (P41143 whole entry): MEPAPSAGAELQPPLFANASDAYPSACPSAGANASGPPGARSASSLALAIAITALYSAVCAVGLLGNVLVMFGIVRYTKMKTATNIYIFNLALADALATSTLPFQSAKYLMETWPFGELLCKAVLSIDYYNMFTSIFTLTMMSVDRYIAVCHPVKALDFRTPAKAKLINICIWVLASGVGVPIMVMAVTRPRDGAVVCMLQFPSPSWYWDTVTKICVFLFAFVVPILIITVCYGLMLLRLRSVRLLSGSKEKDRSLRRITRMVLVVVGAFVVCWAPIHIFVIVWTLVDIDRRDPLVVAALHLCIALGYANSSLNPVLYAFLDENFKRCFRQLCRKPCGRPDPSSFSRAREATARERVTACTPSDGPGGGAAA
# Sequence of Intestinal-type alkaline phosphatase (P09923 whole entry): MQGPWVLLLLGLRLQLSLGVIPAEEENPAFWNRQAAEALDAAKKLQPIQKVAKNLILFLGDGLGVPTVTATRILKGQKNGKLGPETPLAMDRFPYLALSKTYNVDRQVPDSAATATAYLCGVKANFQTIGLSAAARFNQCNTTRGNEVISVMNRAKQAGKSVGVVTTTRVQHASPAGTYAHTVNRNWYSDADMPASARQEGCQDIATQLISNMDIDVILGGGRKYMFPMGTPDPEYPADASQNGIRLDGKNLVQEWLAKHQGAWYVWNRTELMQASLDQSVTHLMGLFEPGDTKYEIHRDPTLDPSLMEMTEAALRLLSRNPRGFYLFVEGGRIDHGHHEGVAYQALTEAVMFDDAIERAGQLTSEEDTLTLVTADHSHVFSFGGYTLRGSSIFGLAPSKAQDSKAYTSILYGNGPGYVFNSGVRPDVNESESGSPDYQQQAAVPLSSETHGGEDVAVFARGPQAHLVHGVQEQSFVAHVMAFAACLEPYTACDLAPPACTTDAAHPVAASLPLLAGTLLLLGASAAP
# Sequence of Kappa-type opioid receptor (P41145 whole entry): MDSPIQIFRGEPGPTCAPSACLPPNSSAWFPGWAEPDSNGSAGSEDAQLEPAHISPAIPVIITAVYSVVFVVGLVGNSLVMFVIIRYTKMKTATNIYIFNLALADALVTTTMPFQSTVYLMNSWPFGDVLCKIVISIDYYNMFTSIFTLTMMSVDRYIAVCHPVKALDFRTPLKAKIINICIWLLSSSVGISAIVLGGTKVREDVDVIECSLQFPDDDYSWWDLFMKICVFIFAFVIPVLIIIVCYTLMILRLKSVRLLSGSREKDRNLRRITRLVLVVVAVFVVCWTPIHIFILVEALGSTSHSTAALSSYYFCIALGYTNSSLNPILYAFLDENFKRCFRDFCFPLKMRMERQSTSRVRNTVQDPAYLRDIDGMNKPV
# Sequence of Metabotropic glutamate receptor 3 (P31422 whole entry): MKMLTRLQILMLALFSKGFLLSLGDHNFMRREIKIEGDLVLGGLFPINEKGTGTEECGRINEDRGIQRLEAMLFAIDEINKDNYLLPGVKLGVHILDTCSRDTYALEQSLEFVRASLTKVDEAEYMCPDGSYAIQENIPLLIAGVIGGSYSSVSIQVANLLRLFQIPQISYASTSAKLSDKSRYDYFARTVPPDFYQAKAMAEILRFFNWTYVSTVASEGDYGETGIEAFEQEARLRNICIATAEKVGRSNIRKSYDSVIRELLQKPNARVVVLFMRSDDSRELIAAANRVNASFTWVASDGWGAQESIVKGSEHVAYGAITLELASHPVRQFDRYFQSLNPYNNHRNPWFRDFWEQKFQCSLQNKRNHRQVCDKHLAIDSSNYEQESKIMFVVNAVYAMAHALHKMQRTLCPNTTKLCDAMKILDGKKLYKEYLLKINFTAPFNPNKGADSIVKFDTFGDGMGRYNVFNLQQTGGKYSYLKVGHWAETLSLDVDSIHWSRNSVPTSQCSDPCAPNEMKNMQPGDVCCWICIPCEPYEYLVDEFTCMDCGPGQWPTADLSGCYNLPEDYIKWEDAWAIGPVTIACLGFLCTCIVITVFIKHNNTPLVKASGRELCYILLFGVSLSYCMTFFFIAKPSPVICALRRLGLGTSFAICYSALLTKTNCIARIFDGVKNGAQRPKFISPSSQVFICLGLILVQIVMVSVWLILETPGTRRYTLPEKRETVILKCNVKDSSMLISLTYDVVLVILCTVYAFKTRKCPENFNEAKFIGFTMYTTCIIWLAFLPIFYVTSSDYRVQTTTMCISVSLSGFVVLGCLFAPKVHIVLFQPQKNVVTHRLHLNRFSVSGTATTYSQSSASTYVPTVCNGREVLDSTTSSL
# Sequence of Mu-type opioid receptor (P35372 whole entry): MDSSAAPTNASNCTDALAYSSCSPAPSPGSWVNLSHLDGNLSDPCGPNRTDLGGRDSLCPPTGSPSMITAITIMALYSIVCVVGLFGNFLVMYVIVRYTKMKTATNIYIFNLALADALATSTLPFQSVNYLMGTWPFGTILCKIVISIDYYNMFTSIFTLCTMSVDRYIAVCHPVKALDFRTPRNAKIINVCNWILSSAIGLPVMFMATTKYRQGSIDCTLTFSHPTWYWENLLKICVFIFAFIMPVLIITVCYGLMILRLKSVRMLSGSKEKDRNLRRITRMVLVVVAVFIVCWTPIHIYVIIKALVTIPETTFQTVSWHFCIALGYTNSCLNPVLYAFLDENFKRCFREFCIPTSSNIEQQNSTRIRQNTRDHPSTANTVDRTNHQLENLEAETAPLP
smiles,measurement,setting,value
COc1ccc(CC(=O)NO)cc1,IC50,[1],20 µM (inactive)
COc1ccc(C#Cc2ccc(C(=O)N3CC[C@H](O)C3)cc2)cc1,IC50,[2],8.66 µM (active)
C[C@@H]1CCCCO[C@@H](CN(C)S(C)(=O)=O)[C@@H](C)CN([C@@H](C)CO)C(=O)c2cc(NS(=O)(=O)c3ccc(Cl)cc3)ccc2O1,AC50,[3],17.6 µM (active)
O=C(CCCN1C(=O)/C(=C\c2ccccc2OC(F)F)SC1=S)Nc1cccnc1,AC50,[4],34.5 µM (active)
same,AC50,[5],14.8 µM (active)
same,AC50,[6],7.44 µM (active)
same,AC50,[7],46.2 µM (active)
same,AC50,[8],46.9 µM (active)
same,AC50,[9],81 µM (active)
same,AC50,[10],21.6 µM (active)
same,AC50,[11],9.15 µM (active)
same,AC50,[12],18.1 µM (active)
same,AC50,[13],> 100 µM (inactive)
CN1CCN(C2=C(Nc3cccc(Cl)c3)C(=O)c3ccccc3C2=O)CC1,AC50,[14],11.1 µM (active)
same,AC50,[15],30.7 µM (active)
same,AC50,[16],5.11 µM (active)
C/C=C/c1ccc([C@@H]2[C@@H]3CN(C(=O)Nc4ccc(C(F)(F)F)cc4)C[C@H]2N3)cc1,AC50,[17],16.7 µM (active)
same,AC50,[18],18.1 µM (active)
same,AC50,[19],10.3 µM (active)
same,AC50,[20],16.6 µM (active)
same,AC50,[21],6.85 µM (active)
COC(=O)c1cc(Br)cnc1N1CCC(N[C@@H]2CCCC[C@@H]2O)CC1,IC50,[22],0.579 µM (active)
same,IC50,[23],> 50 µM (inactive)
same,IC50,Mu-type opioid receptor,19 µM (inactive)
CO[C@H]1CN(C)C(=O)c2ccc(NC(=O)Nc3ccc(Cl)c(Cl)c3)cc2OC[C@H](C)NC[C@@H]1C,AC50,[24],11.2 µM (active)
same,AC50,[25],18.4 µM (active)
same,AC50,[26],53.6 µM (active)
c1ccc(Nc2ccnc(Nc3ccccc3)n2)cc1,EC50,[27],> 100 µM (inactive)
same,AC50,[28],26 µM (active)
